Test results reported in patent US20100222304A1, “Methods of Treating Neuropathic Pain by Modulation of Glycogenolysis or Glycolysis” (priority 2006, published 2010).
Read-outs that look alike come from different tables or passages of the source.

Tests used:
human hepatocytes [1] = conditions: human primary hepatocytes; read-out: EC50, inhibition of glucose production; cited from earlier work
[2] = one oral suspension dose 2.5 to 1000 mg after overnight fast; cited from earlier work
Female ZDF rats = conditions: 100 mg/kg/day, 14 days; cited from earlier work
cynomolgus monkeys = conditions: cited from earlier work
overnight fasted rats = conditions: 2.5 to 40 mg/kg 1 h before liquid meal 20 kcal/kg; effect at doses over 10 mg/kg; cited from earlier work
[3] = tested on: Zucker diabetic fatty (ZDF) rats; conditions: cited from earlier work; for glucose tolerance: CS-917 300 mg/kg and/or glyburide 100 mg/kg orally, 90 min before 2 g/kg glucose, 3 h following; for insulin secretion: CS-917 300 mg/kg, glyburide 100 mg/kg orally
[4] = oral capsules 100, 200, 400 or 800 mg, 14 days; cited from earlier work
gluconeogenesis = conditions: rat hepatocytes, isolated rat kidneys, whole animal studies; cited from earlier work
[5] = cited from earlier work
ZDF rats = conditions: cited from earlier work
goto-kakizaki (GK) rats = conditions: cited from earlier work
patients = conditions: first 6 h after dosing on day 14, versus day before first dose; cited from earlier work
Tet/GSK-3-beta mice = conditions: cited from earlier work; for tau phosphorylation in the hippocampus: oral, 3 weeks, NP-01139 50 to 100 mg/kg/day, NP-12 100 to 200 mg/kg/day; for clinical signs: prolonged oral treatment
[6] = rats; cited from earlier work
ob/ob mice = conditions: 30 mg/kg po, cited from earlier work
db/db mice [7] = conditions: 60 mg/kg po qd, 9 days; cited from earlier work
Male Sprague-Dawley rats = assay: Mechanical allodynia induced by spinal nerve ligation (SNL) in rats; type: in vivo, rat; conditions: 30 mg/kg PO, post-SNL day 19, p<0.01 vs. vehicle
Procedure: Male Sprague-Dawley rats (Hsd:Sprague-Dawley®SD®, Harlan, Indianapolis, Ind., U.S.A.) weighing 223±2 g on Day 14 were housed three per cage. Animals had free access to food and water and were maintained on a 12:12 h light/dark schedule for the entire duration of the study. The animal colony was maintained at 21° C. and 60% humidity. All experiments were conducted in accordance with the International Association for the Study of Pain guidelines and were approved by the University of Minnesota Animal Care and Use Committee.
The Spinal Nerve Ligation (SNL) model was used to induce chronic neuropathic pain. […]
Baseline, post-injury and post-treatment values for non-noxious mechanical sensitivity were evaluated using 8 Semmes-Weinstein filaments (Stoelting, Wood Dale, Ill., USA) with varying stiffness (0.4, 0.7, 1.2, 2.0, 3.6, 5.5, 8.5, and 15 g) according to the up-down method. […] The mean and standard error of the mean (SEM) were determined for each paw in each treatment group. […]
Statistical analyses were conducted using Prism™ 4.01 (GraphPad, San Diego, Calif., USA). Mechanical hypersensitivity of the injured paw was determined by comparing pre-SNL to post-SNL values at Day 14. Data were analyzed using the Wilcoxon test. […] Drug effect was analyzed by comparing post-vehicle and post-drug values using the Friedman test followed by a Dunn's post hoc test. […]

rat hepatocytes = conditions: read-out: EC50, reduction of glucagon-induced glycogenolysis; cited from earlier work
healthy conscious rats = conditions: glucagon 10 microg/kg iv; cited from earlier work
[8] = single and multiple dose escalation; cited from earlier work
db/db mice [9] = conditions: cited from earlier work
human hepatocytes [10] = conditions: read-out: EC50, reduction of glucagon-induced glycogenolysis; cited from earlier work
[11] = 50, 100, 200 or 400 mg qd, 14 days
[12] = chronic 21-day study, 10-week old ZDF rats

In the case of CCOC(=O)[C@H](C)NP(=O)(N[C@@H](C)C(=O)OCC)c1ccc(-c2nc(N)sc2CC(C)C)o1 [CS-917], the EC50 (human hepatocytes [1]) is listed as 300 nM, the tolerability [2] is listed as “well tolerated with nausea seen at 400 mg and vomiting seen at 800 and 1000 mg” and the “hyperglycemia (blood glucose)” value (Female ZDF rats) is listed as 166 ± 24 mg/dL. For the same compound, the “insulin levels, blood lactate, liver glycogen and liver triglycerides” value (Female ZDF rats) was “largely unaffected”, the plasma triglycerides (Female ZDF rats) was “tended to be lowered” and the polydipsia (Female ZDF rats) was 15 ± 6.2 mL/day. The plasma glucagons levels (cynomolgus monkeys; 60 mg/kg) was “increased”, the insulin levels (cynomolgus monkeys; 20 to 60 mg/kg, 3 h after administration) was “dose-dependently decreased” and the “AUC values of plasma glucose levels” value (overnight fasted rats) was “significantly dose dependently decreased”. The glucose tolerance [3] was “improved glucose tolerance”, the insulin secretion [3] was “No stimulation of insulin secretion” and the tolerability [4] was “well tolerated with no serious adverse events”. For the same compound, the gluconeogenesis (gluconeogenesis) was “inhibit gluconeogenesis”, the “lactic acid AUC compared with placebo” value ([5]; 400 mg dose) was “increased” and the “absorption, metabolism, clearance” value [5, 11] was “rapidly absorbed, extensively metabolized, rapidly cleared”. The tolerability [5, 11] was “well tolerated with no serious adverse events”, the lactic acid profiles ([5]; other dose groups (50, 100, 200 mg)) was “indifferent from placebo” and the glucose lowering (ZDF rats; [12]) was “effectively lowered glucose”. The “minimum efficacious dose, glucose lowering” value (ZDF rats; [12]) was 30 mg/kg, the oral efficacy (ZDF rats; freely feeding and 6-h fasting ZDF rats, early and advanced disease states) was “good oral efficacy” and the plasma glucagons (goto-kakizaki (GK) rats; 40 mg/kg) was “increased”. For the same compound, the plasma glucose levels (goto-kakizaki (GK) rats; 5 to 40 mg/kg, 3 h after administration) was “dose-dependently decreased”, the “hepatic fructose 1,6-bisphosphate and fructose 6-phosphate” value (goto-kakizaki (GK) rats; 20 and 40 mg/kg, 4 h after administration) was “increased” and the blood glucose levels (patients) was “lower blood glucose levels”.

In the case of CC1CC(=O)C(CC2C=CC=CC2)C1=O (centres unmarked) [NP-12], the “tau phosphorylation in the hippocampus” value (Tet/GSK-3-beta mice) is listed as “dose-dependent significant decrease” and the clinical signs (Tet/GSK-3-beta mice) is listed as “not showing any apparent clinical signs”.

In the case of Cn1sc(=O)n(Cc2ccccc2)c1=O [NP-01139], the “tau phosphorylation in the hippocampus” value (Tet/GSK-3-beta mice) is listed as “dose-dependent significant decrease” and the clinical signs (Tet/GSK-3-beta mice) is listed as “not showing any apparent clinical signs”.

In the case of O=C(N[C@@H](Cc1ccc(F)cc1)C(=O)N1CCC(O)CC1)c1cc2cc(Cl)ncc2[nH]1 [PSN-357], the t1/2 [6] is given as 4 h, the blood glucose levels (ob/ob mice; 90 to 210 minutes post administration) is given as “reduced blood glucose levels” and the “increase in liver glycogen” value (ob/ob mice; after 5 h) is given as 66%. The hyperglycemia (db/db mice [7]) was “prevented hyperglycemia”, the “increase in liver glycogen” value (db/db mice [7]) was 57% and the “muscle glycogen, plasma insulin or alanine aminotransferase” value (db/db mice [7]) was “no changes”. For the same compound, the “mechanical allodynia (von Frey, up-down method)” value (Male Sprague-Dawley rats) was “reduced mechanical allodynia”, the EC50 (rat hepatocytes) was 1900 nM and the “minimum effective dose, inhibition of glucagon-stimulated elevation of blood glucose” value (healthy conscious rats) was 3 mg/kg. The safety and tolerability [8] was “safe and well tolerated”, the “heart and skeletal muscle glycogen” value (db/db mice [9]; after 5 h) was “remained unaffected” and the liver glycogen (db/db mice [9]; after 5 h) was “increase in liver glycogen”. For the same compound, the “reduction of blood glucose” value (db/db mice [9]; maintained after 5 h) was 35% and the EC50 (human hepatocytes [10]) was 1100 nM.

For COc1ccc(Cl)cc1C(=O)NCCc1ccc(S(=O)(=O)NC(=O)NC2CCCCC2)cc1 [glyburide], the glucose tolerance [3] is given as “improved glucose tolerance” and the insulin secretion [3] is given as “positive insulin secretory response”.
